Results from patent publication US12415774B2, “Polyol-based esters of hydroxycarboxylic acids” (KetoLipix Therapeutics GmbH, priority 2019, dated 2025).

System: pancreatin (Panzytrat 40,000)
Description: Both media are from the company Biorelevant®, Ltd. in Great Britain. In addition, in some experiments porcine pancreas is added (Panzytrat® 40,000, Fa. Allergan).
The pancreatin is used in the form of the commercially available product Panzytrat® 40,000 from the Allergan company. The whole mixture is stirred on a hot plate at 50° C.; the course of the reaction is determined and monitored by continuously recording the acid number over time.

| Substance | cleavage by pancreatin to the free 3-hydroxybutyric acid |
| --- | --- |
| 3-BHB-di-diglycerol ester | cleaved by pancreatin to the free 3-hydroxybutyric acid |
| 3-BHB-tri-diglycerol ester | cleaved by pancreatin to the free 3-hydroxybutyric acid |
| 3-BHB-mono-diglycerol ester | cleaved by pancreatin to the free 3-hydroxybutyric acid |
